In patent US20240368239A1, “Novel bispecific protein and use thereof” (SL METAGEN, priority 2020, published 2024):

System: B6 normal mice
Test: Fluorescence spectrometry tissue distribution of Cy5.5-labelled substances
Type: in vivo
Conditions: 24 hours after administration, Cy5.5 label
Protocol: Next, the present inventors performed an experiment in B6 normal mice in order to observe the distribution in each tissue and organ according to the administration of a bispecific fusion protein according to an embodiment of the present invention. Cy5.5 was used as a fluorophore for tracking the distribution after administration of each substance. Buffer exchange was performed for each substance to be administered, MG12-1, MG12-4, and GLP-1Fc homodimer with boric acid buffer (pH 8.5), and with reference to the protocol of the Cy5.5 labeling kit (GE, #PA15605) were allowed to react with an appropriate amount of Cy5.5 overnight under refrigeration conditions. Unreacted Cy5.5 in the reaction-completed substance was removed through the PBS substitution process, and whether Cy5.5 was reacted well was confirmed through the final SDS-PAGE. Each administered substance was diluted with 10% DMSO/PBS to have the same fluorescence intensity using an ELISA plate reader capable of measuring fluorescence intensity before being administered.

- Average fluorescence intensity, Brain: 0
- Average fluorescence intensity, Large intestine: 0
- Average fluorescence intensity, Small intestine: 0
Substance: Cy5.5 [reference compound]
